The results in this text go back to patent US8466088B2, “Herbicidal compositions containing benzoylpyrazole compounds” (Ishihara Sangyo Kaisha, Ltd., priority 2007, dated 2013).

Read-outs that look alike come from different tables or passages of the source.

The subject of one assay is crabgrass. Description: Example 1: pot test, foliar treatment, visually observed growth inhibition of crabgrass. It counts as in vivo. The text has this: (§1) When the herbicidal activity in a case where two active ingredients are combined, is larger than the simple sum of the respective herbicidal activities of the two active ingredients (the expected activity), it is called a synergistic effect. The activity expected by the combination of two active ingredients can be calculated as follows (Colby S. R., “Weed”, vol. 15, p. 20-22, 1967). E=α+β−(α×β+100) where
(§2) α: growth inhibition rate when treated with x (g/ha) of herbicide X,
(§3) β: growth inhibition rate when treated with y (g/ha) of herbicide Y,
(§4) E: growth inhibition rate expected when treated with x (g/ha) of herbicide X and y (g/ha) of herbicide Y.
(§5) That is, when the actual growth inhibition rate (measured value) is larger than the growth inhibition rate by the above calculation (calculated value), the activity by the combination can be regarded as showing a synergistic effect.
(§6) Upland field soil was put into a 1/1,000,000 hectare pot, and seeds of various plants were sown. When the respective plants reached predetermined leaf stage, herbicidal compositions in predetermined amounts were diluted with water in an amount corresponding to 300 L/ha and applied for foliar treatment by a small sprayer.
(§7) Further, in accordance with the above Colby's formula, the growth inhibition rate (calculated value) was calculated. In Tables, with respect to the compound A, Compound Nos. in Table 1 or 3 are described, and with respect to other herbicidal compounds, common names are described.

Another assay relates to velvetleaf. Description: Example 1: pot test, foliar treatment, visually observed growth inhibition of velvetleaf. It is filed as in vivo, Abutilon theophrasti MEDIC.
Text: as §1, §2, §3, §4, §5, §6, §7

Setting [1] is: 3.2 to 4.3 leaf stage, 21st day after application, 125 g/ha.
Where [2] appears, read: Abutilon theophrasti, foliar, 2.5 to 3.3 leaf stage, 21st day after application, read-out: Growth inhibition rate (%) of velvetleaf, Measured value.
Where [3] appears, read: Abutilon theophrasti, foliar, 3.2 to 4.1 leaf stage, 21st day after application, read-out: Growth inhibition rate (%) of velvetleaf, Measured value.
The mark [4] stands for this setting: Digitaria sanguinalis, foliar, read-out: Growth inhibition rate (%) of crabgrass, Measured value.

Turning to `CCOC(=O)COc1ccc(Cl)cc1Cl` [2,4-D-ethyl], the “Growth inhibition rate (%) of crabgrass, Measured value” in the assay on crabgrass (setting [1]) came out at 0%; in the assay with crabgrass (3.6 to 4.5 leaf stage, 14th day after application, 100 g/ha), 0%; in the assay with crabgrass (3.6 to 4.5 leaf stage, 22nd day after application, 200 g/ha) it was 25%. The “Growth inhibition rate (%) of velvetleaf, Measured value” in the assay on velvetleaf (2.4 to 3.2 leaf stage, 22nd day after application, 63 g/ha) is on record as 30%; in the assay on velvetleaf (setting [1]) it was 50%.
With `CC(C)N1C(=O)c2ccccc2NS1(=O)=O` [Bentazone-sodium], the inhibition – broadly, how much of the control response was suppressed – at 200 g/ha in the assay on crabgrass (Digitaria sanguinalis, foliar, 3.2 to 4.1 leaf stage, 21st day after application, 200 g/ha, read-out: Growth inhibition rate (%) of crabgrass, Measured value) turned out to be 0%; in the assay on crabgrass (Digitaria sanguinalis, foliar, 4.1 to 5.3 leaf stage, 14th day after application, 200 g/ha, read-out: Growth inhibition rate (%) of crabgrass, Measured value), 0%; with velvetleaf (Abutilon theophrasti, foliar, 3.0 to 4.0 leaf stage, 21st day after application, 200 g/ha, read-out: Growth inhibition rate (%) of velvetleaf, Measured value), 20%. The inhibition at 150 g/ha in the assay on velvetleaf (Abutilon theophrasti, foliar, 2.0 to 2.5 leaf stage, 21st day after application, 150 g/ha, read-out: Growth inhibition rate (%) of velvetleaf, Measured value) was found to be 95%. For the same compound, the inhibition at 100 g/ha in the assay on velvetleaf (Abutilon theophrasti, foliar, 3.0 to 4.0 leaf stage, 21st day after application, 100 g/ha, read-out: Growth inhibition rate (%) of velvetleaf, Measured value) was 0%.
`N#Cc1cc(Br)c(O)c(Br)c1` [Bromoxynil, bromoxynil, reference compound]: the inhibition at 165 g/ha with crabgrass (Digitaria sanguinalis, foliar, 2.7 to 3.6 leaf stage, 21st day after application, read-out: Growth inhibition rate (%) of crabgrass, Measured value) worked out at 0%; in the assay with crabgrass (Digitaria sanguinalis, foliar, 4.0 to 5.0 leaf stage, 21st day after application, read-out: Growth inhibition rate (%) of crabgrass, Measured value), 0%; in the assay with velvetleaf (setting [2]) it was 40%; in the assay with velvetleaf (setting [3]), 30%; in the assay on velvetleaf (Abutilon theophrasti, foliar, 4.0 to 4.4 leaf stage, 22nd day after application, read-out: Growth inhibition rate (%) of velvetleaf, Measured value), 50%. In addition, the inhibition at 77 g/ha worked out at 0% in the assay on crabgrass (Digitaria sanguinalis, foliar, 4.0 to 5.0 leaf stage, 21st day after application, 77 g/ha, read-out: Growth inhibition rate (%) of crabgrass, Measured value); 30% in the assay on velvetleaf (setting [2]); 0% with velvetleaf (setting [3]). Besides, in the assay with velvetleaf (Abutilon theophrasti, foliar, 2.4 to 3.2 leaf stage, on the 22nd day after application, foliar, active ingredient amount 62.5 g/ha, read-out: Growth inhibition rate (%) of velvetleaf, Measured value), the inhibition at 62.5 g/ha amounted to 35%.
Consider `CCCCCCCC(=O)Oc1c(Br)cc(C#N)cc1Br` [Bromoxynil-octanoate], for which the inhibition at 63 g/ha with crabgrass (Digitaria sanguinalis, foliar, 3.5 to 4.0 leaf stage, 21st day after application, 63 g/ha, read-out: Growth inhibition rate (%) of crabgrass, Measured value) is 0%; in the assay on velvetleaf (Abutilon theophrasti, foliar, 2.0 to 2.5 leaf stage, 21st day after application, 63 g/ha, read-out: Growth inhibition rate (%) of velvetleaf, Measured value), 25%; with velvetleaf (Abutilon theophrasti, foliar, 3.3 to 4.2 leaf stage, 22nd day after application, 63 g/ha, read-out: Growth inhibition rate (%) of velvetleaf, Measured value) it was 45%. Moreover, the inhibition at 50 g/ha worked out at 0% in the assay with velvetleaf (Abutilon theophrasti, foliar, 3.0 to 3.8 leaf stage, 15th day after application, read-out: Growth inhibition rate (%) of velvetleaf, Measured value); 20% in the assay with velvetleaf (Abutilon theophrasti, foliar, 3.2 to 5.0 leaf stage, 14th day after application, read-out: Growth inhibition rate (%) of velvetleaf, Measured value); 10% in the assay with velvetleaf (Abutilon theophrasti, foliar, 3.2 to 5.0 leaf stage, 21st day after application, read-out: Growth inhibition rate (%) of velvetleaf, Measured value); 0% with velvetleaf (Abutilon theophrasti, foliar, 3.5 to 4.3 leaf stage, 21st day after application, read-out: Growth inhibition rate (%) of velvetleaf, Measured value). In addition, the inhibition at 125 g/ha in the assay with velvetleaf (Abutilon theophrasti, foliar, 3.3 to 4.2 leaf stage, 22nd day after application, 125 g/ha, read-out: Growth inhibition rate (%) of velvetleaf, Measured value) is 50%.
On to `CCOC(=O)C(Cl)Cc1cc(-n2nc(C)n(C(F)F)c2=O)c(F)cc1Cl` (stereo not shown) [Carfentrazone-ethyl], for which the inhibition at 2.5 g/ha is 0% in the assay with crabgrass (setting [4]) and 65% with velvetleaf (Abutilon theophrasti, foliar, read-out: Growth inhibition rate (%) of velvetleaf, Measured value, 3.2 to 4.3 leaf stage, 21st day after application, 2.5 g/ha). Further, the inhibition at 5 g/ha was determined as 0% in the assay on crabgrass (setting [4]); 98% in the assay on velvetleaf (Abutilon theophrasti, foliar, read-out: Growth inhibition rate (%) of velvetleaf, Measured value, 2.0 to 2.5 leaf stage, 21st day after application); 80% in the assay with velvetleaf (Abutilon theophrasti, foliar, read-out: Growth inhibition rate (%) of velvetleaf, Measured value, 3.3 to 4.3 leaf stage, 20th day after application).
`COCC(C)N(C(=O)CCl)c1c(C)csc1C` (stereo not shown) [Dimethenamid]: in the assay on velvetleaf (Abutilon theophrasti, foliar, 2.0 to 2.5 leaf stage, 21st day after application, 125 g/ha, read-out: Growth inhibition rate (%) of velvetleaf, Measured value), the inhibition at 125 g/ha worked out at 0%.
Regarding `COc1cc(OC)nc(NC(=O)NS(=O)(=O)c2cc(NC=O)ccc2C(=O)N(C)C)n1` [Foramsulfuron], in the assay with velvetleaf (Abutilon theophrasti, foliar, 2.0 to 2.8 leaf stage, 21st day after application, 15 g/ha, read-out: Growth inhibition rate (%) of velvetleaf, Measured value), the inhibition at 15 g/ha amounted to 0%. In addition, the inhibition at 30 g/ha with velvetleaf (Abutilon theophrasti, foliar, 2.0 to 2.8 leaf stage, 21st day after application, 30 g/ha, read-out: Growth inhibition rate (%) of velvetleaf, Measured value) was determined as 25%.
Regarding `CP(=O)(O)CCC(N)C(=O)O` (stereo not shown) [Glufosinate-ammonium], in the assay on velvetleaf (Abutilon theophrasti, foliar, read-out: Growth inhibition rate (%) of velvetleaf, Measured value, 3.3 to 4.3 leaf stage, 20th day after application, 100 g/ha), the inhibition at 100 g/ha came to 0%. In the assay with velvetleaf (Abutilon theophrasti, foliar, read-out: Growth inhibition rate (%) of velvetleaf, Measured value, 3.3 to 4.3 leaf stage, 20th day after application, 200 g/ha), the inhibition at 200 g/ha is 10%.
In the case of `N.O=C(O)CNCP(=O)(O)O` [Glyphosate-ammonium], the “Growth inhibition rate (%) of velvetleaf, Measured value” was 0% with velvetleaf (2.6 to 3.3 leaf stage, 20th day after application, 63 g/ha); 0% with velvetleaf (3.0 to 4.0 leaf stage, 21st day after application, 200 g/ha); 0% in the assay on velvetleaf (3.2 to 5.0 leaf stage, 14th day after application, 75 g/ha); 25% in the assay with velvetleaf (3.5 to 4.1 leaf stage, 14th day after application, 100 g/ha); 50% with velvetleaf (3.5 to 4.1 leaf stage, 14th day after application, 200 g/ha); 0% in the assay with velvetleaf (3.5 to 4.1 leaf stage, 20th day after application, 75 g/ha). In addition, the “Growth inhibition rate (%) of velvetleaf, Measured value” in the assay on velvetleaf (3.5 to 4.1 leaf stage, 20th day after application, 150 g/ha) is 0%; in the assay with velvetleaf (3.5 to 4.3 leaf stage, 21st day after application, 75 g/ha), 0%.
Regarding `O=C(O)CNCP(=O)([O-])O.[K+]` [Glyphosate-potassium], in the assay on crabgrass (3.3 to 4.2 leaf stage, 28th day after application, 75 g/ha), the “Growth inhibition rate (%) of crabgrass, Measured value” came to 0%.
`CSc1nnc(C(C)(C)C)c(=O)n1N` [Metribuzin]: the inhibition at 125 g/ha with crabgrass (Digitaria sanguinalis, foliar, 3.2 to 4.2 leaf stage, 21st day after application, 125 g/ha, read-out: Growth inhibition rate (%) of crabgrass, Measured value) was 15%. For the same compound, the inhibition at 250 g/ha with crabgrass (Digitaria sanguinalis, foliar, 3.2 to 4.2 leaf stage, 21st day after application, 250 g/ha, read-out: Growth inhibition rate (%) of crabgrass, Measured value) is 20%.
As for `CCSC(=O)Oc1c(C(=O)c2ccc(S(C)(=O)=O)c(C(=O)OC)c2C)cnn1C` [No. 1, 5-(ethylthio)carbonyloxy-1-methylpyrazol-4-yl 3-(methoxycarbonyl)-2-methyl-4-(methylsulfonyl)phenyl ketone], the inhibition at 15 g/ha with crabgrass (Digitaria sanguinalis, foliar, 3.2 to 4.3 leaf stage, on the 22nd day after application, foliar, active ingredient amount 15 g/ha, read-out: Growth inhibition rate (%) of crabgrass, Measured value) was 65%.
Regarding `Cn1nc(C(F)(F)F)c(CS(=O)(=O)C2=NOC(C)(C)C2)c1OC(F)F` [Pyroxasulfone], the inhibition at 50 g/ha in the assay on velvetleaf (Abutilon theophrasti, foliar, 3.5 to 4.0 leaf stage, 14th day after application, read-out: Growth inhibition rate (%) of velvetleaf, Measured value) came out at 40%. Moreover, the inhibition at 100 g/ha in the assay with velvetleaf (Abutilon theophrasti, foliar, 3.5 to 4.0 leaf stage, 14th day after application, 100 g/ha, read-out: Growth inhibition rate (%) of velvetleaf, Measured value) was 50%.
Regarding `CCS(=O)(=O)c1cccnc1S(=O)(=O)NC(=O)Nc1nc(OC)cc(OC)n1` [Rimsulfuron], the inhibition at 10 g/ha in the assay with velvetleaf (Abutilon theophrasti, foliar, 3.0 to 4.0 leaf stage, 21st day after application, 10 g/ha, read-out: Growth inhibition rate (%) of velvetleaf, Measured value) stood at 75%. In addition, the inhibition at 20 g/ha in the assay on velvetleaf (Abutilon theophrasti, foliar, 3.0 to 4.0 leaf stage, 21st day after application, 20 g/ha, read-out: Growth inhibition rate (%) of velvetleaf, Measured value) stood at 95%. Moreover, the inhibition at 7 g/ha in the assay on velvetleaf (Abutilon theophrasti, foliar, 3.2 to 4.3 leaf stage, 21st day after application, 7 g/ha, read-out: Growth inhibition rate (%) of velvetleaf, Measured value) was 50%.
Turning to `COc1nc(NC(=O)NS(=O)(=O)c2ccccc2C(F)(F)F)nc(C(F)(F)F)n1` [Tritosulfuron], the “Growth inhibition rate (%) of crabgrass, Measured value” in the assay on crabgrass (3.2 to 4.2 leaf stage, 21st day after application, 15 g/ha) is on record as 0%.
